From ChEMBL document CHEMBL1156342, “Five new diprenylated flavonols from the leaves of Broussonetia kazinoki” (2001)
In brackets after ≈: the same amount, converted by molar mass.

How the values were obtained:
Format in all cases: functional
KB = assay: Cytotoxicity against human KB cells after 5 days by MTT assay; details: 120 h, read-out: ED50 (the source's name)
HCT-8 = assay: Cytotoxicity against human HCT8 cells after 5 days by MTT assay; details: HCT-8, 120 h, read-out: ED50 (the source's name)
A549 = assay: Cytotoxicity against human A549 cells after 5 days by MTT assay; details: A549, 120 h, read-out: ED50 (the source's name)

SMILES	EC50 (KB) [µg/mL]	EC50 (HCT-8) [µg/mL]	EC50 (A549) [µg/mL]
C=CC(C)(C)c1c(O)cc(O)c2c(=O)c(O)c(-c3cc(O)c4c(c3)C=CC(C)(C)O4)oc12 [BROUSSONOL A]	> 10	9.1 (≈ 20.8 µM)	8.74 (≈ 20 µM)
CC1Oc2cc(O)c3c(=O)c(O)c(-c4cc(O)c5c(c4)C=CC(C)(C)O5)oc3c2C1(C)C (stereo unspecified) [BROUSSONOL B]	> 10	8.8 (≈ 20.2 µM)	5.52 (≈ 12.6 µM)
CC(C)=CCc1cc(-c2oc3c4c(cc(O)c3c(=O)c2O)OC(C)C4(C)C)cc(O)c1O (stereo unspecified) [BROUSSONOL C]	> 10	9.63 (≈ 22 µM)	7.77 (≈ 17.7 µM)
CC(C)=CCc1cc(-c2oc3c(CC=C(C)C)c(O)cc(O)c3c(=O)c2O)cc(O)c1O [BROUSSONOL D]	4.15 (≈ 9.46 µM)	> 10	> 10
CC(C)=CCc1cc(-c2oc3cc(O)c(CC=C(C)C)c(O)c3c(=O)c2O)cc(O)c1O [BROUSSONOL E]	> 10	> 10	> 10
CC(C)=CCc1c(CCCc2ccc(O)cc2O)cc(O)c(O)c1CC=C(C)C [KAZINOL F]	> 10	> 10	> 10
COc1cc(O)ccc1CCCc1cc(O)c(O)c(CC=C(C)C)c1CC=C(C)C [KAZINOL J]	> 10	> 10	> 10
